Measurements taken from patent US11072612B2, “NLRP3 modulators” (INNATE TUMOR IMMUNITY, INC., priority 2016, dated 2021).

Columns and labels:
Assay type in all cases: cell-based
TLR8 = target: T1, TLR8 (Homo sapiens, UniProt Q9NR97); assay: TLR8 EC50 assay
T1 sequence (Q9NR97 27-1041): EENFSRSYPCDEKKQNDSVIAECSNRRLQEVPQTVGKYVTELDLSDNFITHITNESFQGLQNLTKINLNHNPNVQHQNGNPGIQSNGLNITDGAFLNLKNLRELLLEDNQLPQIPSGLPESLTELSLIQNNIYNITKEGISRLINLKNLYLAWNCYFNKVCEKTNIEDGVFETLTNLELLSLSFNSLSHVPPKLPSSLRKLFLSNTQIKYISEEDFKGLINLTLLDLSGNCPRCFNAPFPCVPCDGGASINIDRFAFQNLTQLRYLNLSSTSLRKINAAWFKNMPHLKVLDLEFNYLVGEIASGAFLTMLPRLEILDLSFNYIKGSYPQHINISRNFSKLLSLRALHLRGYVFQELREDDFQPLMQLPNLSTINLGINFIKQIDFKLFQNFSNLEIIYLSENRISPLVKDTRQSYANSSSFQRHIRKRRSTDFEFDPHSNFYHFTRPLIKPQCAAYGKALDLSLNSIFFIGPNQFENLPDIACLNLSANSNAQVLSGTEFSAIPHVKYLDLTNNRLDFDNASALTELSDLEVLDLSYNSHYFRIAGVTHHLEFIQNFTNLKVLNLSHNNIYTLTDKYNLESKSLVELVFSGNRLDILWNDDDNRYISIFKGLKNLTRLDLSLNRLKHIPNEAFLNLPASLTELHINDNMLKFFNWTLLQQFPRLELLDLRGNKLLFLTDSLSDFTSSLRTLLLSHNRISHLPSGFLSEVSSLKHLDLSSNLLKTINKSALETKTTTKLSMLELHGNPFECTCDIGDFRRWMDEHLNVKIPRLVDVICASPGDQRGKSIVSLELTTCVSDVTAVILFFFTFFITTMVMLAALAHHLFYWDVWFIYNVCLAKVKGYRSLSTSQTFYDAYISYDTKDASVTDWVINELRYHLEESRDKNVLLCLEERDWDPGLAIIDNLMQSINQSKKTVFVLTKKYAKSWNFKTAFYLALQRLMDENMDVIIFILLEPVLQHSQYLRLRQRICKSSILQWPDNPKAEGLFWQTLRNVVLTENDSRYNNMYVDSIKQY

hNLRP3 = target: T2, hNLRP3 (Homo sapiens, UniProt Q96P20); assay: hNLRP3 agonist assay: IL-1β production in PMA-differentiated THP-1 cells (ELISA); conditions: IL-1β by ELISA
T2 construct: THP-1 cells were purchased from the American Type Culture Collection; host or cells: THP-1 cells, PMA-differentiated
T2 sequence (Q96P20 whole entry): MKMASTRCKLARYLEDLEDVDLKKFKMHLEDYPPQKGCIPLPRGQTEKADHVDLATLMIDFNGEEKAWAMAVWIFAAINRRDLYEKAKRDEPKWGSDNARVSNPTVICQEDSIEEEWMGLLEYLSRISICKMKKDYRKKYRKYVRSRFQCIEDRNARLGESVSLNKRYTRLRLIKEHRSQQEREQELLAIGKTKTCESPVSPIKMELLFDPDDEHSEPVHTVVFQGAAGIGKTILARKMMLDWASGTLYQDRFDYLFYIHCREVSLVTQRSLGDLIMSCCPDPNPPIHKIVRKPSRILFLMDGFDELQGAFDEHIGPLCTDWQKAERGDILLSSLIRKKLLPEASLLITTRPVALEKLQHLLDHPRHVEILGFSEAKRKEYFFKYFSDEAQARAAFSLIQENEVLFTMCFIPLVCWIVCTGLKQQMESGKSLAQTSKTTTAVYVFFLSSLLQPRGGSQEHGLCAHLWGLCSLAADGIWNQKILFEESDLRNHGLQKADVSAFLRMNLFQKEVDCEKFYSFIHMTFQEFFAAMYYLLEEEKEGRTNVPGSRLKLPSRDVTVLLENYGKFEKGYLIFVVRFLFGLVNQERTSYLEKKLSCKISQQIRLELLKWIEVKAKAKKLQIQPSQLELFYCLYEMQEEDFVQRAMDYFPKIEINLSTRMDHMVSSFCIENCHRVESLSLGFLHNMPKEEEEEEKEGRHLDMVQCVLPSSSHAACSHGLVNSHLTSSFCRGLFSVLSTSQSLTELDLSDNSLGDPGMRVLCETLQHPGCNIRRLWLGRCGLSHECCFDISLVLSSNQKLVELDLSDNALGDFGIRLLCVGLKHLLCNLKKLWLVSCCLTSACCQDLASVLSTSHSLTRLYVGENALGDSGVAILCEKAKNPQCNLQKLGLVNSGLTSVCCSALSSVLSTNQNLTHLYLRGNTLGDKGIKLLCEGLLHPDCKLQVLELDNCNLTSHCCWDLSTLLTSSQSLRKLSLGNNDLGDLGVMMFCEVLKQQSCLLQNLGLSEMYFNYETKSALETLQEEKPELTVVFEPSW
Description: THP-1 cells were purchased from the American Type Culture Collection and sub-cultured according to instructions from the supplier. Prior to experiments, cells were cultured in RPMI 1640 containing 10% heat inactivated FBS, penicillin (100 units/ml) and streptomycin (100 μg/ml), and maintained in log phase prior to experimental setup. Prior to the experiment THP-1 were treated with PMA (Phorbol 12-myristate 13-acetate) (10 μg/ml) for 24 hours. The day of the experiment the media was removed and attaching cells were treated with trypsin for 2 minutes, cells were then collected, washed with PBS (phosphate buffer saline), spin down, resuspended in 2% heat inactivated FBS with RPMI at a concentration of 1×10^6 cells/ml, and 100 μl was plated in a 96 well plate. Cells were incubated with compounds for 4 hours. Cell free supernatant was collected and the production of IL-1β was evaluated by ELISA. Compounds were dissolved in dimethyl sulfoxide (DMSO) and added to the culture medium to achieve desired concentration (e.g. 100, 30, 10, 3, 1, 0.3 or 0.1 μM). A vehicle only control was run concurrently with each experiment. Final DMSO concentration was 1%.

TLR7 = target: T3, TLR7 (Homo sapiens, UniProt Q9NYK1); assay: TLR7 EC50 assay
T3 sequence (Q9NYK1 27-1049): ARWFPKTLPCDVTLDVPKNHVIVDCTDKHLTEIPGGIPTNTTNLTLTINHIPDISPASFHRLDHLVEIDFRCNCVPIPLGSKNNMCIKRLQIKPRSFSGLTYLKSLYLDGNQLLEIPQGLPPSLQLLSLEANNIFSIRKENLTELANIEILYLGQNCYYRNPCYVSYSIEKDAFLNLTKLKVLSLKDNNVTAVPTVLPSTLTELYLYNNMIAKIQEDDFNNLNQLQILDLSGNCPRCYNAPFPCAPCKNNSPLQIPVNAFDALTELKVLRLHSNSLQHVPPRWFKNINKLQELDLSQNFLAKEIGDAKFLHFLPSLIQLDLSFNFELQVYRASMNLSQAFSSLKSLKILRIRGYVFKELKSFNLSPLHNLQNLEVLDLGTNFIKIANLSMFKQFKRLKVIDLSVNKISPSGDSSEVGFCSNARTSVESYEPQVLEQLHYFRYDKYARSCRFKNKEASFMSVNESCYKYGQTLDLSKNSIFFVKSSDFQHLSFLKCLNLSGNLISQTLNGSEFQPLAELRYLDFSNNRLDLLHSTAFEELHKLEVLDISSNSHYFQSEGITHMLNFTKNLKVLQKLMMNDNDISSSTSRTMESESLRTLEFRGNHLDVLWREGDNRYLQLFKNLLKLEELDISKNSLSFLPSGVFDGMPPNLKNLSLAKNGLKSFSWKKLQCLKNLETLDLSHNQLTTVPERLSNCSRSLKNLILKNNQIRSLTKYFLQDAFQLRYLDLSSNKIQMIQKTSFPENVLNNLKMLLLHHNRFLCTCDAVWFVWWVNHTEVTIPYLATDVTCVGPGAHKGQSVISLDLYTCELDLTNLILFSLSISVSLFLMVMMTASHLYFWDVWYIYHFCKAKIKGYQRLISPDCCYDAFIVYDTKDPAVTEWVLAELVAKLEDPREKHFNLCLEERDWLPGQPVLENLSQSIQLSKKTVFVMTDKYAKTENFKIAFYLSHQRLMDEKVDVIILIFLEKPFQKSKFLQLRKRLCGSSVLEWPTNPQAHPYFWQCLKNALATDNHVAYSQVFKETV

| SMILES | EC50 (TLR8; Table 1) | EC50 (hNLRP3; Table 1, 4 hours) | EC50 (TLR7; Table 1) | EC50 (TLR8; Table 2) | EC50 (hNLRP3; Table 2, 4 hours) | EC50 (TLR7; Table 2) |
| --- | --- | --- | --- | --- | --- | --- |
| Nc1nc2ccccc2c2[nH]c(CCCO)nc12 [Compound 101, 3-[4-amino-1H-imidazo[4,5-c]quinolin-2-yl]propan-1-ol] | 20 to 100 µM | 20 to 100 µM | 20 to 100 µM |  |  |  |
| Cn1c(CCCO)nc2c(N)nc3cc(-c4cc[nH]n4)ccc3c21 [Compound 107] |  |  |  | > 100 µM | ≤ 1 µM | > 100 µM |
| Cn1c(CCCO)nc2c(N)nc3cc(-n4cccn4)ccc3c21 [Compound 108] |  |  |  | > 100 µM | ≤ 1 µM | > 100 µM |
| Nc1nc2cc(-n3cccn3)ccc2c2[nH]c(CN3CC4COCC4C3)nc12 (stereo not shown) [Compound 109] |  |  |  |  | ≤ 1 µM |  |
| CC(C)(C)OC(=O)NC1CCC(c2nc3c(N)nc4cc(Br)ccc4c3[nH]2)CC1 (stereo not shown) [Compound 110] |  |  |  | > 100 µM | 1 to 20 µM | > 100 µM |
| Cc1ccc2c(c1)nc(N)c1nc(CCCO)[nH]c12 [Compound 111] |  |  |  | 20 to 100 µM | 1 to 20 µM | > 100 µM |
| Cn1c(CCCO)nc2c3ccc(-n4cccn4)cc3nc(N)c21 [Compound 113] |  |  |  | > 100 µM | 1 to 20 µM | > 100 µM |
| CS(=O)(=O)N1CCC(c2nc3c(N)nc4cc(-n5cccn5)ccc4c3[nH]2)CC1 [Compound 114] |  |  |  | > 100 µM | 1 to 20 µM | > 100 µM |
| Nc1nc2cc(N3CCNC3=O)ccc2c2[nH]c(CCCO)nc12 [Compound 115] |  |  |  | > 100 µM | 1 to 20 µM | > 100 µM |
| Nc1nc2cc(Br)ccc2c2[nH]c(C3CCC(O)CC3)nc12 (stereo not shown) [Compound 116] |  |  |  |  | 1 to 20 µM |  |
| CC(C(=O)O)c1ccc2c(c1)nc(N)c1nc(CCCO)[nH]c12 (stereo not shown) [Compound 117] |  |  |  | > 100 µM | 1 to 20 µM | > 100 µM |
| Nc1nc2cc(Br)c(F)cc2c2[nH]c(CCCO)nc12 [Compound 118] |  |  |  | > 100 µM | 1 to 20 µM | > 100 µM |
| CC(=O)c1ccc2c(c1)nc(N)c1nc(CCCO)[nH]c12 [Compound 119] |  |  |  | > 100 µM | 1 to 20 µM | > 100 µM |
| CC(C(N)=O)c1ccc2c(c1)nc(N)c1nc(CCCO)[nH]c12 (stereo not shown) [Compound 120] |  |  |  | > 100 µM | 1 to 20 µM | > 100 µM |
| Nc1nc2cc(CC(=O)O)ccc2c2[nH]c(CCCO)nc12 [Compound 121] |  |  |  | > 100 µM | 1 to 20 µM | > 100 µM |
| Nc1nc2cc(Br)ccc2c2[nH]c([C@H]3CC[C@@H](O)CC3)nc12 [Compound 122] |  |  |  | > 100 µM | 1 to 20 µM | > 100 µM |
| CN(CCCc1nc2c(N)nc3cc(-c4cncnc4)ccc3c2[nH]1)C(=O)OC(C)(C)C [Compound 123] |  |  |  | > 100 µM | 1 to 20 µM | > 100 µM |
| COc1ccc2c(c1)nc(N)c1nc(CCCO)[nH]c12 [Compound 124] |  |  |  | > 100 µM | 1 to 20 µM | > 100 µM |
| Nc1nc2cc(Br)ccc2c2[nH]c([C@H]3CC[C@H](O)CC3)nc12 [Compound 125] |  |  |  | > 100 µM | 1 to 20 µM | > 100 µM |

| SMILES | EC50 (TLR8; Table 1) | EC50 (hNLRP3; Table 1, 4 hours) | EC50 (TLR7; Table 1) | EC50 (TLR8; Table 2) | EC50 (hNLRP3; Table 2, 4 hours) | EC50 (TLR7; Table 2) |
| --- | --- | --- | --- | --- | --- | --- |
| Nc1nc2cc(Cl)c(Cl)cc2c2[nH]c(CCCO)nc12 [Compound 126] |  |  |  | > 100 µM | 1 to 20 µM | > 100 µM |
| Nc1nc2cc(C(F)(F)F)ccc2c2[nH]c(CCCO)nc12 [Compound 127] |  |  |  | > 100 µM | 20 to 100 µM | 20 to 100 µM |
| Cc1cc2nc(N)c3nc(CCCO)[nH]c3c2cc1F [Compound 128] |  |  |  | 20 to 100 µM | 20 to 100 µM | > 100 µM |
| Nc1nc2ccccc2c2[nH]c(C3COC3)nc12 [Compound 129] |  |  |  | > 100 µM | 20 to 100 µM | > 100 µM |
| Cn1c(CCCO)nc2c(N)nc3ccccc3c21 [Compound 130] |  |  |  | > 100 µM | 20 to 100 µM | > 100 µM |
| Nc1nc2cc(Br)ccc2c2[nH]c(C3CCC(N)CC3)nc12 (stereo not shown) [Compound 131] |  |  |  | 20 to 100 µM | 20 to 100 µM | > 100 µM |
| Nc1nc2ccccc2c2[nH]c([C@H]3C[C@@H](O)C3)nc12 [Compound 132] |  |  |  | > 100 µM | 20 to 100 µM | > 100 µM |
| Nc1nc2ccccc2c2[nH]c([C@H]3C[C@H](O)C3)nc12 [Compound 133] |  |  |  | > 100 µM | 20 to 100 µM | > 100 µM |
| Nc1nc2ccccc2c2[nH]c([C@H]3CC[C@@H](O)CC3)nc12 [Compound 134] |  |  |  | > 100 µM | 20 to 100 µM | > 100 µM |
| Nc1nc2ccccc2c2[nH]c([C@H]3CC[C@H](O)CC3)nc12 [Compound 135] |  |  |  | > 100 µM | 20 to 100 µM | > 100 µM |
| Nc1nc2cc(F)c(F)cc2c2[nH]c(CCCO)nc12 [Compound 136] |  |  |  | > 100 µM | 20 to 100 µM | > 100 µM |
| CN1CCC[C@H](c2nc3c(N)nc4ccccc4c3[nH]2)C1 [Compound 138] |  |  |  | > 100 µM | 20 to 100 µM | > 100 µM |
| CN1CCC[C@@H](c2nc3c(N)nc4ccccc4c3[nH]2)C1 [Compound 139] |  |  |  | > 100 µM | 20 to 100 µM | > 100 µM |
| COC(=O)CCCn1c(CCCO)nc2c(N)nc3cc(Br)ccc3c21 [Compound 141] |  |  |  | > 100 µM | 1 to 20 µM | > 100 µM |
| COC(=O)CCn1c(CCCO)nc2c(N)nc3cc(Br)ccc3c21 [Compound 142] |  |  |  | > 100 µM | 1 to 20 µM | > 100 µM |
| Nc1nc2cc(C3CCNC3)ccc2c2[nH]c(CCCO)nc12 (stereo not shown) [Compound 197, 3-(4-amino-7-pyrrolidin-3-yl-1H-imidazo[4,5-c]quinolin-2-yl)propan-1-ol] |  |  |  |  | > 100 µM | > 100 µM |
| Nc1nc2cc(C3CCNCC3)ccc2c2[nH]c(CCCO)nc12 [Compound 198, 3-(4-amino-7-piperidin-4-yl-1H-imidazo[4,5-c]quinolin-2-yl)propan-1-ol] |  |  |  |  | > 100 µM | > 100 µM |
| Nc1nc2cc(-c3cccs3)ccc2c2[nH]c(CCCOCc3ccccc3)nc12 [Compound 243] |  |  |  |  | 1 to 20 µM |  |
